# What was measured:
# [1] = test system: KCC2 promoter; test: KCC2-LUC luciferase primary screen in primary cortical neurons; type: cell-based, mouse; details: rank score, 100 nM, 48 h
# Description: Cytosine arabinoside ([…]) was added to cultures on the second day after seeding [2 d in vitro (DIV)] to inhibit the proliferation of non-neuronal cells. Cell suspension was plated at a density of 1×10^6 cells/ml onto 24-well tissue-culture dishes coated with poly-d-lysine.
# LUC activity was then determined for each compound. Culture supernatant was removed and cells were lysed with 150 μl lysis buffer (Targeting Systems CA, USA cat. CLR1). LUC activity was measured with a RedLuciferase Assay kit (Targeting Systems cat. FLAR) according to the manufacturer's instructions. A Veritas microplate luminometer was used to measure luminescence; for each treatment triplicates of 40 μl cell lysates (from each 24-well tissue-culture dish) were used and 25 μl substrate was injected per well. […] Relative Light units (RLU) for each treatment was derived from Light Units (compound treatment)/vehicle treatment (0.5% DMSO).
# The primary screen encompassed three levels of LUC measurements. […] Each compound was ranked based on composite scores from primary and secondary screening.
# [2] = test system: intracellular chloride ([Cl—]i); test: Secondary screen: Clomeleon chloride imaging in primary mouse neurons; type: cell-based; parameters: chloride reduction (%): concentration or dose not given beside the values; details: for Clomeleon Score (duplicates): rank score; for chloride reduction (%): from the [Cl—]i pair of the same line; for chloride [Cl—]i mM: value after compound, control => treated
# Description: (§1) The primary screen encompassed three levels of LUC measurements. The first level of screening yielded a total of 137 compounds with cut-off RLU>125% LUC activity. These 137 compounds were subject to second round of screening, which was carried out in duplicate independent assays to yield the top 103 compounds sorted for highest RLU. The 103 compounds were then subjected to a third round of screening carried out in duplicate independent assays to yield the top 40 compounds which were again ranked. The best 22 of these 40 compounds (ranked for highest RLU activity) were subjected to secondary screening: Cultured neurons were treated with the 22 compounds; RT-qPCR and Clomeleon imaging methodologies (Yeo et al., 2009, J Neurosci 29:14652-14662) were used to determine effects of compounds on KCC2 mRNA expression and [Cl—]i, respectively. Each compound was ranked based on composite scores from primary and secondary screening.
# Chloride imaging of primary cultured cortical neurons was conducted as previously described (Kuner and Augustine, 2000, Neuron 27:447-459; Liedtke et al., 2013, Small 9:1066-1075; Yeo et al., 2009, J Neurosci 29:14652-14662). A Clomeleon expression plasmid was transfected into primary cortical neurons by electroporation (Amaxa Nucleofector Device). Transfected neurons were verified by yellow fluorescent protein (YFP) fluorescence, and ratiometric images (excitation at λ=434 nm, dual emission at λ=485 and 535 nm; for resting chloride, six stable frames at […] were captured, which were averaged) were acquired using RATIOTOOL program. Calibration of Clomeleon signals (535 nm/485 nm emission ratio) was performed by using tributyltin-nigericin to establish a standard curve, which was then normalized for measured intraneuronal pH to take into account the pH sensitivity of Clomeleon.
# (§2) To identify KCC2 gene expression enhancing compounds, cultured primary cortical neurons were cultured from KCC2-luciferase(LUC)-knockin (KCC2-LUCki) mice (Liedtke et al., 2013, Small 9:1066-1075; Yeo et al., 2013, Proc Natl Acad Sci USA 110:4315-4320) and used LUC metrics as readout for activity of the proximal KCC2 promoter (2.5 kB (Yeo et al., 2009, J Neurosci 29:14652-14662)), which drives LUC in this mouse transgenic line. A Z′ factor of 0.94 was obtained. This strategy will not select for long-range enhancers of KCC2 gene expression that act outside the 2.5 kB core KCC2 promoter. 1057 compounds, contained in two NCI libraries (FIG. 1), related to inhibition of growth of malignantly transformed cells were screened. Iterative screening followed by measurements of KCC2 mRNA (RT-qPCR) and intracellular chloride ([Cl—]i), using clomeleon chloride indicator protein (Kuner and Augustine, 2000, Neuron 27:447-459; Yeo et al., 2009, J Neurosci 29:14652-14662), led to decreasing numbers of confirmed and re-confirmed hits, and 4 “winner” compounds were selected (FIG. 1 and Table 3).
# [3] = test system: KCC2; test: Composite score from primary and secondary screening; type: cell-based, mouse; details: for Top two hits / Aggregate Score: Mechanistic Compounds; for Aggregate Score / Total Score: sum of the three scores
# Description: as §1, §2
# [4] = test system: KCC2 mRNA; test: Secondary screen: KCC2 RT-qPCR in primary mouse neurons; type: cell-based; details: rank score
# Description: as §1
# Total RNA was isolated from cultured cell samples using Directzol RNA miniprep kit (ZymoResearch). The protocol includes DNAse digestion to exclude genomic DNA from preparations. Total RNA (1 μg) was reverse transcribed using oligo primers (dT) and SuperScriptIII first-strand synthesis kit (Invitrogen). Gene expression was assessed by quantitative real-time PCR using 2×SYBR Green Master Mix (Qiagen) and a three-step cycling protocol (anneal at 60° C./elongate at 72° C., denature at 95° C.). Specificity of primers was verified by dissociation/melting curve for the amplicons when using SYBR Green as a detector. All reactions were performed in triplicates. The amount of target messenger RNA (mRNA) in the experimental group relative to that in the control was determined from the resulting fluorescence and threshold values (Ct) using the ΔΔCt method. βIII-tubulin was used as housekeeping gene.
# oligodT-initiated reverse transcription of 1 μg total RNA, DNA-se treated, was subjected to RT-qPCR using primers specific for KCC2 for rat and KCC2 for human sequences, normalized for neuronal βIII-tubulin, as previously described (Yeo et al., 2009, J Neurosci 29:14652-14662). For cultured neurons, total RNA was extracted from pelleted cells, and for spinal cord tissue it was extracted from microdissected lumbar spinal cord dorsal horn.
# as §2
Compound,Luciferase Score (triplicates) ([1]; Mechanistic Compounds),chloride reduction (%) [2] [%],chloride [Cl—]i mM [2],Luciferase Score (triplicates) ([1]; Natural Compounds),other results
CC(=O)/C(=C\c1cccc([N+](=O)[O-])c1)C(=O)Nc1ccccc1C [(2E)-N-(2-methylphenyl)-2-[(3-nitrophenyl)methylidene]-3-oxobutanamide],5,,,,
"Cc1ccc(NC(=O)c2cccc([N+](=O)[O-])c2O)c(C)c1 [NSC79456, n-(2,4-Dimethylphenyl)-2-hydroxy-3-nitrobenzamide]",1,32.4,74 => 24 mM,,Clomeleon Score (duplicates) ([2]; Mechanistic Compounds): 1; Top two hits [3]: winner; Aggregate Score [3]: 5; RT-QPCR Score (triplicates) ([4]; Mechanistic Compounds): 3
"CC(=O)C1CCCC(=O)C=CC(=O)O1 (stereo not shown) [NSC180515, 2-Acetyl-2,3,4,5-tetrahydrooxonine-6,9-dione]",,32,68 => 22 mM,4,Clomeleon Score (duplicates) ([2]; Natural Compounds): 1; Top 2 hits ([3]; Natural Compounds): winner; Total Score ([3]; Natural Compounds): 6; RT-QPCR Score (triplicates) ([4]; Natural Compounds): 1
COc1cc([C@@H]2c3cc4c(cc3[C@H](O[C@@H]3O[C@@H]5COC(c6ccccc6)O[C@H]5[C@H](O)[C@H]3O)[C@H]3COC(=O)[C@H]23)OCO4)cc(OC)c1OC (stereo partly shown) [proresidor],,,,9,
COc1cc2c3c(c4ccc(OC)c(OC)c4c2cc1OC)CN1CCC[C@H]1C3 [tylocrebrine],,52,75 => 39 mM,5,Clomeleon Score (duplicates) ([2]; Natural Compounds): 4; Total Score ([3]; Natural Compounds): 12; RT-QPCR Score (triplicates) ([4]; Natural Compounds): 3
CC1(C)CCC[C@]2(C)C3=C(CC[C@@H]12)C(=O)OC3 [confertifoline],,56,75 => 42 mM,1,Clomeleon Score (duplicates) ([2]; Natural Compounds): 5; Total Score ([3]; Natural Compounds): 11; RT-QPCR Score (triplicates) ([4]; Natural Compounds): 5
"CC(=O)Nc1ccc(-c2nc3ccccc3s2)cc1 [NSC33006, N-[4-(1,3-benzothiazol-2-yl)phenyl]acetamide]",2,37.8,74 => 28 mM,,Clomeleon Score (duplicates) ([2]; Mechanistic Compounds): 2; Top two hits [3]: winner; Aggregate Score [3]: 5; RT-QPCR Score (triplicates) ([4]; Mechanistic Compounds): 1
CC(O)CCC(=O)c1ccoc1 (stereo not shown) [4-Ipomeanol],3,43.2,74 => 32 mM,,Clomeleon Score (duplicates) ([2]; Mechanistic Compounds): 3; Aggregate Score [3]: 8; RT-QPCR Score (triplicates) ([4]; Mechanistic Compounds): 2
"CC1(C)C(O)OC(O)C1(C)C (stereo not shown) [3,3,4,4-tetramethyloxolane-2,5-diol, 3,3,4,4-tetramethyl-oxolane-2,5-diol]",6,,,,
COc1ccc(C[C@H]2NC[C@H](O)[C@H]2OC(C)=O)cc1 [anisomycine],,57.3,75 => 43 mM,3,Clomeleon Score (duplicates) ([2]; Natural Compounds): 6; Total Score ([3]; Natural Compounds): 13; RT-QPCR Score (triplicates) ([4]; Natural Compounds): 4
"Cc1cc(-c2nc3ccccc3s2)ccc1N [4-(1,3-Benzothiazol-2-yl)-2-methylaniline]",4,46.3,82 => 38 mM,,Clomeleon Score (duplicates) ([2]; Mechanistic Compounds): 4; Aggregate Score [3]: 13; RT-QPCR Score (triplicates) ([4]; Mechanistic Compounds): 5
N=C1N=CN=C2C([C@@H]3O[C@H](CO)[C@@H](O)[C@H]3O)=CN=C12 [9-Deazaadenosine],2,48.8,82 => 40 mM,,Clomeleon Score (duplicates) ([2]; Mechanistic Compounds): 5; Aggregate Score [3]: 11; RT-QPCR Score (triplicates) ([4]; Mechanistic Compounds): 4
C[C@@]12C(=O)OC(=O)[C@]1(C)[C@H]1CC[C@@H]2O1 [cantharidine],,48.5,68 => 33 mM,6,Clomeleon Score (duplicates) ([2]; Natural Compounds): 3; Total Score ([3]; Natural Compounds): 15; RT-QPCR Score (triplicates) ([4]; Natural Compounds): 6
NC(=O)c1cn(C2OC(CO)C(O)C2O)c2ncnc(N)c12 (stereo not shown) [Sauzivamycin],6,,,,
COc1cc2c(c(OC)c1OC)-c1ccc(OC)c(=O)cc1[C@@H](NC(C)=O)CC2 [colchicine],,,,10,
CC(=O)N1CCN(c2ccc(OCC3COC(Cn4ccnc4)(c4ccc(Cl)cc4Cl)O3)cc2)CC1 (stereo not shown) [ketoconazole],,,,9,
COc1ccc(C(=O)O[C@H]2CC[C@@]3(C)[C@@H]4CC[C@H]5[C@]6(O)C[C@H](O)[C@@]7(O)[C@@H](CN8C[C@@H](C)CC[C@H]8[C@@]7(C)O)[C@]6(O)C[C@@]53O[C@]24O)cc1OC [veratridine],,,,7,
